Laboratory results published in EPA's ToxValDB 9.5.

Test system: Rattus norvegicus
Details: short-term, duration: 28 days, oral, gavage, Sprague-Dawley

O=S(=O)([O-])C(F)(F)C(F)(F)C(F)(F)C(F)(F)C(F)(F)C(F)(F)F.[K+] [Potassium perfluorohexanesulfonate]
NOEL (F, Clinical chemistry_Alanine aminotransferase): 50 mg/kg-day | NOEL (F, Clinical chemistry_Albumin): 50 mg/kg-day | NOEL (F, Clinical chemistry_Albumin/globulin ratio): 50 mg/kg-day | NOEL (F, Clinical chemistry_Alkaline phosphatase): 50 mg/kg-day | NOEL (F, Clinical chemistry_Aspartate aminotransferase): 50 mg/kg-day | NOEL (F, Clinical chemistry_Cholesterol): 50 mg/kg-day | NOEL (F, Clinical chemistry_Direct bilirubin): 50 mg/kg-day | LOEL (F, Clinical chemistry_Free thyroxine): 12.5 mg/kg-day | NOEL (F, Clinical chemistry_Globulin): 50 mg/kg-day | NOEL (F, Clinical chemistry_Sorbitol dehydrogenase): 50 mg/kg-day | NOEL (F, Clinical chemistry_Testosterone): 50 mg/kg-day | NOEL (F, Clinical chemistry_Thyroid stimulating hormone): 50 mg/kg-day | NOEL (F, Clinical chemistry_Total bile acids): 50 mg/kg-day | NOEL (F, Clinical chemistry_Total bilirubin): 50 mg/kg-day | NOEL (F, Clinical chemistry_Total protein): 50 mg/kg-day | LOEL (F, Clinical chemistry_Total thyroxine): 6.25 mg/kg-day | NOEL (F, Clinical chemistry_Total triiodothyronine): 50 mg/kg-day | NOEL (F, Clinical chemistry_Triglycerides): 50 mg/kg-day | NOEL (F, Gene expression_Acox1): 50 mg/kg-day | LOEL (F, Gene expression_Cyp2b1): 3.12 mg/kg-day | LOEL (F, Gene expression_Cyp2b2): 3.12 mg/kg-day | NOEL (F, Gene expression_Cyp4a1): 50 mg/kg-day | NOEL (F, Hematology_Erythrocytes): 50 mg/kg-day | NOEL (F, Hematology_Hematocrit): 50 mg/kg-day | NOEL (F, Hematology_Hemoglobin): 50 mg/kg-day | NOEL (F, Hematology_Leukocytes): 50 mg/kg-day | NOEL (F, Hematology_Reticulocytes): 50 mg/kg-day | NOEL (F, Hematology_S. neutrophils): 50 mg/kg-day | NOEL (F, Nonneoplastic effects_Bone marrow - Hypocellularity): 50 mg/kg-day | NOEL (F, Nonneoplastic effects_Kidney - Papilla, necrosis): 50 mg/kg-day | NOEL (F, Nonneoplastic effects_Liver - Hepatocyte, cytoplasmic alteration): 50 mg/kg-day | NOEL (F, Nonneoplastic effects_Liver - Hepatocyte, hypertrophy): 50 mg/kg-day | NOEL (F, Nonneoplastic effects_Liver - Hepatocyte, vacuolization cytoplasmic): 50 mg/kg-day | NOEL (F, Nonneoplastic effects_Liver - Necrosis): 50 mg/kg-day | LOEL (F, Nonneoplastic effects_Nose - Olfactory epithelium, degeneration): 50 mg/kg-day | LOEL (F, Nonneoplastic effects_Nose - Olfactory epithelium, hyperplasia): 50 mg/kg-day | NOEL (F, Nonneoplastic effects_Nose - Olfactory epithelium, necrosis): 50 mg/kg-day | NOEL (F, Nonneoplastic effects_Spleen - Extramedullary hematopoiesis, decreased): 50 mg/kg-day | NOEL (F, Nonneoplastic effects_Stomach, forestomach - Epithelium, hyperplasia): 50 mg/kg-day | NOEL (F, Nonneoplastic effects_Thymus - Atrophy): 50 mg/kg-day | NOEL (F, Organ weights_Heart - Absolute): 50 mg/kg-day | NOEL (F, Organ weights_Heart - Relative): 50 mg/kg-day | LOEL (F, Organ weights_Liver - Absolute): 3.12 mg/kg-day | LOEL (F, Organ weights_Liver - Relative): 3.12 mg/kg-day | NOEL (F, Organ weights_Lung - Absolute): 50 mg/kg-day | NOEL (F, Organ weights_Lung - Relative): 50 mg/kg-day | LOEL (F, Organ weights_R. adrenal gland - Absolute): 12.5 mg/kg-day | LOEL (F, Organ weights_R. adrenal gland - Relative): 50 mg/kg-day | NOEL (F, Organ weights_R. kidney - Absolute): 50 mg/kg-day | NOEL (F, Organ weights_R. kidney - Relative): 50 mg/kg-day | NOEL (F, Organ weights_Spleen - Absolute): 50 mg/kg-day | NOEL (F, Organ weights_Spleen - Relative): 50 mg/kg-day | NOEL (F, Organ weights_Thymus - Absolute): 50 mg/kg-day | NOEL (F, Organ weights_Thymus - Relative): 50 mg/kg-day | NOEL (F, Reproductive toxicity_Altered estrous cyclicity): 50 mg/kg-day | NOEL (F, Survival rates): 50 mg/kg-day | NOEL (F, body weight): 50 mg/kg-day | NOEL (M, Clinical chemistry_Alanine aminotransferase): 10 mg/kg-day | NOEL (M, Clinical chemistry_Albumin): 10 mg/kg-day | LOEL (M, Clinical chemistry_Albumin/globulin ratio): 10 mg/kg-day | NOEL (M, Clinical chemistry_Alkaline phosphatase): 10 mg/kg-day | NOEL (M, Clinical chemistry_Aspartate aminotransferase): 10 mg/kg-day | LOEL (M, Clinical chemistry_Cholesterol): 1.25 mg/kg-day | NOEL (M, Clinical chemistry_Direct bilirubin): 10 mg/kg-day | LOEL (M, Clinical chemistry_Free thyroxine): 0.625 mg/kg-day | LOEL (M, Clinical chemistry_Globulin): 10 mg/kg-day | NOEL (M, Clinical chemistry_Sorbitol dehydrogenase): 10 mg/kg-day | NOEL (M, Clinical chemistry_Testosterone): 10 mg/kg-day | NOEL (M, Clinical chemistry_Thyroid stimulating hormone): 10 mg/kg-day | NOEL (M, Clinical chemistry_Total bile acids): 10 mg/kg-day | NOEL (M, Clinical chemistry_Total bilirubin): 10 mg/kg-day | NOEL (M, Clinical chemistry_Total protein): 10 mg/kg-day | LOEL (M, Clinical chemistry_Total thyroxine): 0.625 mg/kg-day | LOEL (M, Clinical chemistry_Total triiodothyronine): 0.625 mg/kg-day | LOEL (M, Clinical chemistry_Triglycerides): 2.5 mg/kg-day | LOEL (M, Gene expression_Acox1): 5 mg/kg-day | LOEL (M, Gene expression_Acyl-CoA oxidase): 5 mg/kg-day | LOEL (M, Gene expression_Cyp2b1): 1.25 mg/kg-day | LOEL (M, Gene expression_Cyp2b2): 0.625 mg/kg-day | LOEL (M, Gene expression_Cyp4a1): 1.25 mg/kg-day | NOEL (M, Hematology_Erythrocytes): 10 mg/kg-day | NOEL (M, Hematology_Hematocrit): 10 mg/kg-day | NOEL (M, Hematology_Hemoglobin): 10 mg/kg-day | NOEL (M, Hematology_Leukocytes): 10 mg/kg-day | LOEL (M, Hematology_Reticulocytes): 1.25 mg/kg-day | NOEL (M, Hematology_S. neutrophils): 10 mg/kg-day | NOEL (M, Nonneoplastic effects_Bone marrow - Hypocellularity): 10 mg/kg-day | NOEL (M, Nonneoplastic effects_Kidney - Papilla, necrosis): 10 mg/kg-day | NOEL (M, Nonneoplastic effects_Liver - Hepatocyte, cytoplasmic alteration): 10 mg/kg-day | LOEL (M, Nonneoplastic effects_Liver - Hepatocyte, hypertrophy): 2.5 mg/kg-day | NOEL (M, Nonneoplastic effects_Liver - Hepatocyte, vacuolization cytoplasmic): 10 mg/kg-day | NOEL (M, Nonneoplastic effects_Liver - Necrosis): 10 mg/kg-day | NOEL (M, Nonneoplastic effects_Nose - Olfactory epithelium, degeneration): 10 mg/kg-day | NOEL (M, Nonneoplastic effects_Nose - Olfactory epithelium, hyperplasia): 10 mg/kg-day | NOEL (M, Nonneoplastic effects_Nose - Olfactory epithelium, inflammation, suppurative): 10 mg/kg-day | NOEL (M, Nonneoplastic effects_Nose - Olfactory epithelium, necrosis): 10 mg/kg-day | NOEL (M, Nonneoplastic effects_Spleen - Extramedullary hematopoiesis, decreased): 10 mg/kg-day | NOEL (M, Nonneoplastic effects_Stomach, forestomach - Epithelium, hyperplasia): 10 mg/kg-day | NOEL (M, Nonneoplastic effects_Thymus - Atrophy): 10 mg/kg-day | NOEL (M, Organ weights_Heart - Absolute): 10 mg/kg-day | NOEL (M, Organ weights_Heart - Relative): 10 mg/kg-day | LOEL (M, Organ weights_Liver - Absolute): 1.25 mg/kg-day | LOEL (M, Organ weights_Liver - Relative): 1.25 mg/kg-day | NOEL (M, Organ weights_Lung - Absolute): 10 mg/kg-day | NOEL (M, Organ weights_Lung - Relative): 10 mg/kg-day | LOEL (M, Organ weights_R. adrenal gland - Absolute): 5 mg/kg-day | LOEL (M, Organ weights_R. adrenal gland - Relative): 2.5 mg/kg-day | NOEL (M, Organ weights_R. kidney - Absolute): 10 mg/kg-day | LOEL (M, Organ weights_R. kidney - Relative): 10 mg/kg-day | NOEL (M, Organ weights_Spleen - Absolute): 10 mg/kg-day | NOEL (M, Organ weights_Spleen - Relative): 10 mg/kg-day | NOEL (M, Organ weights_Thymus - Absolute): 10 mg/kg-day | NOEL (M, Organ weights_Thymus - Relative): 10 mg/kg-day | NOEL (M, Reproductive toxicity_Altered sperm parameters): 10 mg/kg-day | NOEL (M, Survival rates): 10 mg/kg-day | NOEL (M, body weight): 10 mg/kg-day
